Converted amounts (≈) assume the structure as drawn.
Key:
[1] = Confirmation of insolubilized substance C (HPLC of supernatant after 101-fold dilution); assay type: physicochemical
From the text: A propolis mass was disrupted, injected into 3 columns and fed with 50 v/v % aqueous ethanol solution by counter-current extraction method to dissolve and extract the effective ingredients of propolis. The extract was filtered to obtain a liquid propolis extract containing about 20 w/w % dry solid in a yield of about 30% of the material propolis, d.s.b.
The pH of the sample was 5.0 when measured with a pH-meter. The sample was placed in a beaker and diluted with water by 101-fold into a dilute aqueous ethanol solution in the form of a white suspension which was then allowed to stand at 25° C. for an hour under gentle stirring conditions and centrifuged to obtain a supernatant. High-performance liquid chromatography (HPLC) was used to quantify the concentration of substance C in the supernatant according to the method as described in Bioscience, Biotechnology, and Biochemistry, Vol. 58, No. 5, pp. 945-946 (1994). As a control, the sample was diluted by 101-fold with ethanol in place of water.

[2] = Water-solubility of substance C in propolis extract (supernatant concentration); assay type: physicochemical
Description: The sample in Experiment 1 was mixed with an equal amount of 50 v/v % aqueous ethanol solution either with or without an adequate amount of sodium hydroxide, and the mixture with a pH 5.0 was adjusted to a pH of 5.2, 5.5, 5.8, 6.0, 6.2, 6.4, 6.8, 7.0, 7.2, 7.5 or 8.1 before prepared into an about 10 w/w % liquid propolis extract, d.s.b., as samples used in the following experiments.
After one-month standing at 25° C., the samples were tested similarly as in Experiments 2-(1) to 2-(4) and subjected to a sensory evaluation using 12 panels.

CC(C)=CCc1cc(C=CC(=O)O)cc(CC=C(C)C)c1O [substance C, 3-[4-hydroxy-3,5-bis(3-methyl-2-butenyl)phenyl]-2-propenoic acid]
Concentration of substance C in water dilution relative to control diluted with ethanol ([1]; 101-fold dilution): 0.06%
solubility kinetic ([1]; dilute aqueous ethanol, organic solvent or mixture, 25° C., pH about 5.0 extract, 10 w/w % d.s.b. in 50 v/v % aqueous ethanol, diluted with water by about 100 folds, read-out: Concentration in which substance C dissolves in dilute aqueous ethanol solution): 0.03 µg/mL (≈ 0.0999 µM)
Concentration of substance C in supernatant of dilution diluted with ethanol (Control) ([1]; diluted with ethanol by 101-fold, control): 46.7 ppm
Solubilization of substance C on dilution with water (in words) ([1]; dilution with water into dilute aqueous ethanol solution): insolubilized most of substance C
Amount of substance C of the sample contained in sediments collected by centrifugation ([1]; sediments dissolved in ethanol, after dilution with water): at least 99%
Water-solubility of substance C (in words) ([2]; pH dependence): greatly increased when adjusted to a pH of over 5.5
improvement of solubility of substance C in dilute aqueous ethanol solution ([2]; pH increased from about 5.0 to 5.5-7.0): 15-100 folds
